{"source": "patent US20090060871A1", "about": "“ADMINISTRATION OF AGONIST-ANTAGONIST IN OPIOID-DEPENDENT PATIENTS” (priority 2006, published 2009)", "key": {"[1]": {"test_system": "opioid-dependent patients", "assay": "Study of 28 patients who received Nalbuphine for up to 6 months, Example 9A", "assay_type": "in vivo, human", "from_the_text": "The results of a study of 28 patients who received Nalbuphine for up to 6 months are as follows."}, "[2]": {"test_system": "HIV-infected, opioid-dependent patient", "assay": "Average adherence to ARV regimen during nalbuphine administration", "assay_type": "in vivo, human", "experimental": "Compliance with a treatment regimen and in particular to an ARV regimen is determined using an “average adherence” value calculated using the formula: […]\nwhere A is the number of tablets or gel capsules required by the protocol to be administered to a patient over four weeks; and B is the number of tablets or gel capsules prescribed but actually not taken by a patient over the same period of time."}, "opioid-dependent patient": {"test_system": "opioid-dependent patient", "assay": "Clinical case reports: nalbuphine 2 cc IM twice a day in opioid-dependent patients (Examples 1A-7A)", "assay_type": "in vivo, human"}, "[3]": {"test_system": "IDU (injectable drug users)", "assay": "Pilot study of Nalbuphine administration to IDU (injectable drug users), Example 8A", "assay_type": "in vivo, human", "from_the_text": "A pilot study was initiated to evaluate treatment with Nalbuphine (agonist-antagonist) in the context of HIV prevention, treatment and care interventions. The first pilot study of the effects of Nalbuphine administration to IDU (injectable drug users) started at the 8th of August 2006 in Moscow. It is still being conducted on outpatient basis.\nDuration of individual treatment varied from patient to patient (from 10 days to 180 days) depending on patient's condition, life-style, substance abuse history, etc. The frequency of administration varied from 20 mg per patient bid (initially) to 20 mg per patient per week (after 30 days).\nThe objective of the study is to compare this method with the other methods of drug treatment typical for Russia, and to measure the effects of out-patient Nalbuphine administration using following criteria:\nThe clinical trial included 19 clients, all with simultaneous codeine addiction, 7 patients living with AIDS, 4 being multiple substance users. In all cases, the patient was a difficult case (5-11 years of heroin abuse). 3 of the patients had very high (3-5 g a day) doses of heroin abuse.\nAll patients were between 18-50 years old, diagnosed with opiate abuse (in some cases in combination with other substances). They were admitted to the study after three days of opiate abstinence.\nPatients with psychiatric, oncological, diabetic conditions, chronic kidney illnesses, and pregnancy were excluded from the study."}, "[4]": {"details": "in vivo; cited from earlier work"}, "[5]": {"details": "water; cited from earlier work"}, "[6]": {"details": "Example 1A, M., 2 cc IM twice a day for 48 days"}, "[7]": {"details": "Example 3A, N., 2 cc IM twice a day for 30 days"}}, "note": "Where a name gives a salt, the structure may show the parent alone."}
{"molecule": "Oc1ccc2c3c1OC1[C@@H](O)CCC4(O)[C@@H](C2)N(CC2CCC2)CC[C@]314", "note": "(stereo partly drawn) [nalbuphine, 17-(cyclobutylmethyl)-4,5α-epoxymorphinane-3,6α-14-triol]", "values": [{"measurement": "correlation between administrated dose and heroin consumption", "setting": "[1]; 28 patients", "value": "inverse correlation"}, {"measurement": "overdose, side effects or new infections associated with injectable drugs", "setting": "[1]; 28 patients", "value": "no observed instances of overdose, side effects or new infections"}, {"measurement": "quality of life", "setting": "[1]; 28 patients", "value": "improved"}, {"measurement": "people staying clean (periodic urine tests for opiates) while on therapy", "setting": "[1]; 28 patients, up to 6 months", "value": "two thirds"}, {"measurement": "reduction of total heroin and other opiate consumption", "setting": "[1]; 28 patients, up to 6 months", "value": "up to 75%"}, {"measurement": "cravings for drug", "setting": "[1]; all patients", "value": "clear reduction of cravings for drug"}, {"measurement": "compliance (adherence) to ARVT", "setting": "[1]; patients already receiving ARVT", "value": "nearly perfect compliance (adherence)"}, {"measurement": "Average adherence to ART during April", "setting": "[2]; Example 3A, N., 98% in January-March 2006 before nalbuphine", "value": 100, "unit": "%"}, {"measurement": "Average adherence to ART during April", "setting": "[2]; Example 4A, S., male, Stocrin+Combivir, 76% in January-March 2006 before nalbuphine", "value": 97, "unit": "%"}, {"measurement": "Average adherence to ART during April", "setting": "[2]; Example 5A, V., Stocrin and Combivir, 70% in January-March 2006 before nalbuphine", "value": 95, "unit": "%"}, {"measurement": "Average adherence to ART during April", "setting": "[2]; Example 6A, L., Efavirenz and Combivir, 68% in January-March 2006 before nalbuphine", "value": 93, "unit": "%"}, {"measurement": "Average adherence to ART during April", "setting": "[2]; Example 7A, S., female, 98% in January-March 2006 before nalbuphine", "value": 93, "unit": "%"}, {"measurement": "aggravation of opportunistic infections or HCV", "setting": "opioid-dependent patient; [6]", "value": "No aggravation"}, {"measurement": "craving", "setting": "opioid-dependent patient; [6]", "value": "profound decrease in craving"}, {"measurement": "desire for drug use", "setting": "opioid-dependent patient; Example 2A, D., 2 cc IM twice a day for 52 days", "value": "denies desire for drug use"}, {"measurement": "aggravation of opportunistic infections or HCV", "setting": "opioid-dependent patient; Example 3A, N.", "value": "No aggravation"}, {"measurement": "cravings for drugs", "setting": "opioid-dependent patient; [7]", "value": "cravings for drugs decreased"}, {"measurement": "pain (chronic osteomyelitis)", "setting": "opioid-dependent patient; [7]", "value": "pain relief"}, {"measurement": "aggravation of opportunistic infections or HCV", "setting": "opioid-dependent patient; Example 5A, V.", "value": "No aggravation"}, {"measurement": "alcohol problems", "setting": "opioid-dependent patient; Example 5A, V.", "value": "problems with alcohol persist"}, {"measurement": "aggravation of opportunistic infections or HCV", "setting": "opioid-dependent patient; Example 6A, L.", "value": "No aggravation"}, {"measurement": "drug cravings", "setting": "opioid-dependent patient; Example 6A, L.", "value": "drug cravings decreased"}, {"measurement": "attempts of suicide", "setting": "opioid-dependent patient; Example 6A, L., multiple earlier attempts", "value": "No attempts of suicide"}, {"measurement": "side effects or drug-drug interactions", "setting": "[3]; 19 clients", "value": "No side effects or drug-drug interactions were observed"}, {"measurement": "involvement/adherence to HIV treatments", "setting": "[3]; all HIV-positive patients", "value": "higher involvement/adherence"}, {"measurement": "quality of life", "setting": "[3]; all patients", "value": "improved quality of life"}, {"measurement": "patients who stopped heroin and codeine consumption", "setting": "[3]; of 19 clients, 20 mg bid initially to 20 mg per week, 10 to 180 days, outpatient", "value": 18, "unit": "patients"}]}
{"molecule": "Oc1ccc2c3c1O[C@H]1[C@@H](O)CCC4(O)C(C2)N(CC2CCC2)CCC314", "note": "(stereo partly drawn) [nalbuphine hydrochloride, 17-(cyclobutylmethyl)-4,5α-epoxymorphinan-3,6α-14-triol hydrochloride]", "values": [{"measurement": "plasma half life", "setting": "[4]", "value": "about five"}, {"measurement": "solubility", "setting": "[5]", "value": "Water-soluble"}]}
